How the values were obtained:
[1] = One-month toxicological evaluation with weekly dosing in cynomolgus monkey; format: in vivo
Procedure: Serum ALT and AST levels: Samples were analyzed using a Modular Analytics analyzer.
Serum C5b9 levels: C5b9 sample analysis was performed using an ELISA method. The kit used was Human C5b-9 ELISA Set and Reagent Set B from BD Bioscience. Study samples were analyzed in singlicate diluted 1/100.
bDNA for measurement of mRNA levels: mRNA sample analysis (bDNA method) was performed using the QuantiGene® 2.0 Reagent System kit from Affymetrix. Study samples were lysed prior to analysis using the QuantiGene Sample Processing Kit (Blood samples). Study samples were analyzed in duplicate diluted between 1/100 and 1/1250000.
Next, tolerability and safety of the compound 18-based LNPs in vivo was tested. A full toxicological evaluation of compound 18-based LNPs in both Sprague Dawley rat and cynomolgus monkey was performed using a standard one-month study with weekly dosing at three dose levels in each species. Rats were dosed at 0.05, 0.5, and 2 mg/kg and a non-human primates was dosed at 0.1, 0.3, and 1 mg/kg. LNP-related toxicities associated with MC3-based LNP systems are generally associated with immunological (cytokine and complement activation) and hepatic injury. […] FIGS. 32 and 33 highlight the day 30 levels of alanine transferase (ALT, FIG. 32A) and aspartate aminotransferase (AST, FIG. 32B), two indicators of liver damage.

IL-6, MCP-1 = assay: Cytokine induction in non-human primates; format: in vivo, Cynomolgus monkeys
Procedure: The tolerability and efficacy of nanoparticle compositions to non-human primates was also investigated using a sample formulation including Compound 18. The formulation was prepared according to the standard MC3 formulation described above and included an hEPO mRNA. Primates were administered a single dose of 0.05 (Group 1), 0.3 (Group 2), or 1.0 (Group 3) mpk via intravenous infusion for 60 minutes. Three primates were administered each dose. Expression of hEPO was measured prior to dosing and at 2, 6, 24, 48, and 96 hours post-treatment (Table 26). Table 28 includes levels of indicators of complement activation, while Table 29 includes cytokine induction data.
hEPO ELISA for NHP samples: Human Epo levels were measured using a human erythropoietin immunoassay. Cytokines levels were measured using a non-human primate cytokine kit.

[2] = Tissue distribution and liver tissue clearance of lipid after weekly intravenous doses to CD-1 mice; format: in vivo; details: liver tissue, 0.25 mg/kg mRNA, weekly dosing
From the text: FIGS. 30A-30C are a series of graphs showing the pharmacokinetic and expression profile of Compound 18 after multiple doses. FIG. […]
FIGS. 35A and 35B are a pair of graphs comparing the tissue distribution of MC3 and compound 18.

human hepatocytes = assay: Metabolite profiling of Compound 18 with human hepatocytes; format: in vitro ADME; set-up: key to Detection in incubation: +: Detected; ND: Not detected; details: Compound 18 (10 μM), human hepatocytes
Procedure: The results of metabolic profiling and characterization for compound 18 incubated with human hepatocytes or human plasma are summarized in Tables 41 and 42, respectively.

hEPO mRNA = assay: Pretreatment study in Cynomolgus monkeys (standard MC3 formulation, hEPO mRNA); format: in vivo; details: once weekly for four weeks, absence of any pretreatment
Procedure: The effects of pretreatment to non-human primates were evaluated using a standard MC3 formulation including an mRNA encoding hEPO. Male monkeys were administered the nanoparticle composition once weekly for four weeks at a dose rate of 5 ml/kg/h and were pretreated with either methotrexate or dexamethasone.
As shown, in the absence of any pretreatment, maximal expression levels decreased nearly 70% over the course of the study.

With CCCCCCCCCOC(=O)CCCCCCCN(CCO)CCCCCCCC(=O)OC(CCCCCCCC)CCCCCCCC [Compound 18, Heptadecan-9-yl 8-((2-hydroxyethyl)(8-(nonyloxy)-8-oxooctyl)amino)octanoate] the “ALT and AST levels” value ([1]; 1 mg/kg dose, day 30) was “at the same level as the control”, the C5b9 levels ([1]; after dose 1 or dose 5) was “no significant change” and the IFNg (IL-6, MCP-1; 0.05 mpk, 2 h) was 18.8 pg/mL. The IFNα (IL-6, MCP-1; 0.05 mpk, 2 h) was 18.8 pg/mL, the IL-1b (IL-6, MCP-1; 0.05 mpk, 2 h) was 18.8 pg/mL and the IL-6 (IL-6, MCP-1; 0.05 mpk, 2 h) was 18.8 pg/mL. The MCP-1 (IL-6, MCP-1; 0.05 mpk, 2 h) was 342 pg/mL, the TNF-α (IL-6, MCP-1; 0.05 mpk, 2 h) was 18.8 pg/mL and the IFNg (IL-6, MCP-1; 0.05 mpk, 6 h) was 18.8 pg/mL. The IFNα (IL-6, MCP-1; 0.05 mpk, 6 h) was 18.8 pg/mL, the IL-1b (IL-6, MCP-1; 0.05 mpk, 6 h) was 18.8 pg/mL and the IL-6 (IL-6, MCP-1; 0.05 mpk, 6 h) was 18.8 pg/mL. It also gave an MCP-1 (IL-6, MCP-1; 0.05 mpk, 6 h) of 543 pg/mL, a TNF-α (IL-6, MCP-1; 0.05 mpk, 6 h) of 41.5 pg/mL and an IFNg (IL-6, MCP-1; 0.05 mpk, 24 h) of 18.8 pg/mL. For the same compound, the IFNα (IL-6, MCP-1; 0.05 mpk, 24 h) was 18.8 pg/mL, the IL-1b (IL-6, MCP-1; 0.05 mpk, 24 h) was 18.8 pg/mL and the IL-6 (IL-6, MCP-1; 0.05 mpk, 24 h) was 18.8 pg/mL. It also gave an MCP-1 (IL-6, MCP-1; 0.05 mpk, 24 h) of 236 pg/mL, a TNF-α (IL-6, MCP-1; 0.05 mpk, 24 h) of 17.6 pg/mL and an IFNg (IL-6, MCP-1; 0.05 mpk, Day 5) of 39.3 pg/mL. For the same compound, the IFNα (IL-6, MCP-1; 0.05 mpk, Day 5) was 18.8 pg/mL, the IL-1b (IL-6, MCP-1; 0.05 mpk, Day 5) was 18.8 pg/mL and the IL-6 (IL-6, MCP-1; 0.05 mpk, Day 5) was 18.8 pg/mL. The MCP-1 (IL-6, MCP-1; 0.05 mpk, Day 5) was 232 pg/mL, the TNF-α (IL-6, MCP-1; 0.05 mpk, Day 5) was 63.5 pg/mL and the IFNg (IL-6, MCP-1; 0.05 mpk, Predose) was 18.8 pg/mL. For the same compound, the IFNα (IL-6, MCP-1; 0.05 mpk, Predose) was 18.8 pg/mL, the IL-1b (IL-6, MCP-1; 0.05 mpk, Predose) was 18.8 pg/mL and the IL-6 (IL-6, MCP-1; 0.05 mpk, Predose) was 18.8 pg/mL. For the same compound, the MCP-1 (IL-6, MCP-1; 0.05 mpk, Predose) was 192 pg/mL, the TNF-α (IL-6, MCP-1; 0.05 mpk, Predose) was 18.8 pg/mL and the IFNg (IL-6, MCP-1; 0.3 mpk, 2 h) was 18.8 pg/mL. For the same compound, the IFNα (IL-6, MCP-1; 0.3 mpk, 2 h) was 18.8 pg/mL, the IL-1b (IL-6, MCP-1; 0.3 mpk, 2 h) was 18.8 pg/mL and the IL-6 (IL-6, MCP-1; 0.3 mpk, 2 h) was 191 pg/mL. For the same compound, the MCP-1 (IL-6, MCP-1; 0.3 mpk, 2 h) was 3018 pg/mL, the TNF-α (IL-6, MCP-1; 0.3 mpk, 2 h) was 38.2 pg/mL and the IFNg (IL-6, MCP-1; 0.3 mpk, 6 h) was 18.8 pg/mL. For the same compound, the IFNα (IL-6, MCP-1; 0.3 mpk, 6 h) was 18.8 pg/mL, the IL-1b (IL-6, MCP-1; 0.3 mpk, 6 h) was 18.8 pg/mL and the IL-6 (IL-6, MCP-1; 0.3 mpk, 6 h) was 33.0 pg/mL. For the same compound, the MCP-1 (IL-6, MCP-1; 0.3 mpk, 6 h) was 2011 pg/mL, the TNF-α (IL-6, MCP-1; 0.3 mpk, 6 h) was 32.5 pg/mL and the IFNg (IL-6, MCP-1; 0.3 mpk, 24 h) was 18.8 pg/mL. For the same compound, the IFNα (IL-6, MCP-1; 0.3 mpk, 24 h) was 18.8 pg/mL, the IL-1b (IL-6, MCP-1; 0.3 mpk, 24 h) was 18.8 pg/mL and the IL-6 (IL-6, MCP-1; 0.3 mpk, 24 h) was 18.8 pg/mL. It also gave an MCP-1 (IL-6, MCP-1; 0.3 mpk, 24 h) of 404 pg/mL, a TNF-α (IL-6, MCP-1; 0.3 mpk, 24 h) of 59.6 pg/mL and an IFNg (IL-6, MCP-1; 0.3 mpk, Day 5) of 18.8 pg/mL. The IFNα (IL-6, MCP-1; 0.3 mpk, Day 5) was 18.8 pg/mL, the IL-1b (IL-6, MCP-1; 0.3 mpk, Day 5) was 18.8 pg/mL and the IL-6 (IL-6, MCP-1; 0.3 mpk, Day 5) was 18.8 pg/mL. It also gave an MCP-1 (IL-6, MCP-1; 0.3 mpk, Day 5) of 211 pg/mL, a TNF-α (IL-6, MCP-1; 0.3 mpk, Day 5) of 18.8 pg/mL and an IFNg (IL-6, MCP-1; 0.3 mpk, Predose) of 18.8 pg/mL. It also gave an IFNα (IL-6, MCP-1; 0.3 mpk, Predose) of 18.8 pg/mL, an IL-1b (IL-6, MCP-1; 0.3 mpk, Predose) of 18.8 pg/mL and an IL-6 (IL-6, MCP-1; 0.3 mpk, Predose) of 18.8 pg/mL. For the same compound, the MCP-1 (IL-6, MCP-1; 0.3 mpk, Predose) was 168 pg/mL, the TNF-α (IL-6, MCP-1; 0.3 mpk, Predose) was 18.8 pg/mL and the IFNg (IL-6, MCP-1; 1.0 mpk, 2 h) was 35.8 pg/mL. For the same compound, the IFNα (IL-6, MCP-1; 1.0 mpk, 2 h) was 18.8 pg/mL, the IL-1b (IL-6, MCP-1; 1.0 mpk, 2 h) was 33.4 pg/mL and the IL-6 (IL-6, MCP-1; 1.0 mpk, 2 h) was 834 pg/mL. For the same compound, the MCP-1 (IL-6, MCP-1; 1.0 mpk, 2 h) was 4221 pg/mL, the TNF-α (IL-6, MCP-1; 1.0 mpk, 2 h) was 18.8 pg/mL and the IFNg (IL-6, MCP-1; 1.0 mpk, 6 h) was 38.9 pg/mL. It also gave an IFNα (IL-6, MCP-1; 1.0 mpk, 6 h) of 18.8 pg/mL, an IL-1b (IL-6, MCP-1; 1.0 mpk, 6 h) of 18.8 pg/mL and an IL-6 (IL-6, MCP-1; 1.0 mpk, 6 h) of 398 pg/mL. For the same compound, the MCP-1 (IL-6, MCP-1; 1.0 mpk, 6 h) was 3945 pg/mL, the TNF-α (IL-6, MCP-1; 1.0 mpk, 6 h) was 18.8 pg/mL and the IFNg (IL-6, MCP-1; 1.0 mpk, 24 h) was 18.8 pg/mL. The IFNα (IL-6, MCP-1; 1.0 mpk, 24 h) was 18.8 pg/mL, the IL-1b (IL-6, MCP-1; 1.0 mpk, 24 h) was 18.8 pg/mL and the IL-6 (IL-6, MCP-1; 1.0 mpk, 24 h) was 31.4 pg/mL. The MCP-1 (IL-6, MCP-1; 1.0 mpk, 24 h) was 1444 pg/mL, the TNF-α (IL-6, MCP-1; 1.0 mpk, 24 h) was 46.2 pg/mL and the IFNg (IL-6, MCP-1; 1.0 mpk, Day 5) was 18.8 pg/mL. The IFNα (IL-6, MCP-1; 1.0 mpk, Day 5) was 18.8 pg/mL, the IL-1b (IL-6, MCP-1; 1.0 mpk, Day 5) was 18.8 pg/mL and the IL-6 (IL-6, MCP-1; 1.0 mpk, Day 5) was 18.8 pg/mL. It also gave an MCP-1 (IL-6, MCP-1; 1.0 mpk, Day 5) of 225 pg/mL, a TNF-α (IL-6, MCP-1; 1.0 mpk, Day 5) of 41.9 pg/mL and an IFNg (IL-6, MCP-1; 1.0 mpk, Predose) of 18.8 pg/mL. The IFNα (IL-6, MCP-1; 1.0 mpk, Predose) was 18.8 pg/mL, the IL-1b (IL-6, MCP-1; 1.0 mpk, Predose) was 18.8 pg/mL and the IL-6 (IL-6, MCP-1; 1.0 mpk, Predose) was 18.8 pg/mL. For the same compound, the MCP-1 (IL-6, MCP-1; 1.0 mpk, Predose) was 235 pg/mL, the TNF-α (IL-6, MCP-1; 1.0 mpk, Predose) was 18.8 pg/mL and the primary metabolite [2] was “compound 166”. For the same compound, the Detection in incubation (human hepatocytes; 0 min) was “+”, the Detection in incubation (human hepatocytes; 60 min) was “+” and the Detection in incubation (human hepatocytes; 120 min) was “+”. The Detection in incubation (human hepatocytes; 240 min) was “+”.
In the case of CCCCC/C=C\C/C=C\CCCCCCCCC(CCCCCCCC/C=C\C/C=C\CCCCC)OC(=O)CCCN(C)C [MC3, DLin-MC3-DMA, reference compound], the “decrease of maximal expression levels over the course of the study” value (hEPO mRNA) is reported as ~70%.

— patent publication US12263248B2, “Compounds and compositions for intracellular delivery of therapeutic agents” (ModernaTX, Inc., priority 2018, dated 2025)
